Legend:
[1] = in-vitro-diffusion test, Franz-flow cell, transdermal in-vitro skin flow from patches; format: in vitro ADME, mice; settings: for transdermal in-vitro skin flow / transdermal in-vitro skin flow, MW (mean value): gestodene patch 1% by weight; for transdermal in-vitro skin flow, MW (mean value): mean of cells
From the text: The measurements were made with the following in-vitro-diffusion test. A tempered Franz-flow cell is divided into a donor compartment and an acceptor compartment by a 2 cm^2 piece of excised skin from nude mice, whereby the horny layer faces toward the donor. A 3% or 5% solution of hydroxypropyl-β-cyclodextrin in buffer is pumped with the aid of a pneumatic pump from a tempered storage container through the acceptor compartment and collected with the aid of a fraction collector in glass vials that are exchanged at specific time intervals.
The active ingredient-containing patches are bonded to the donor side.
The content of active ingredients is determined in the individual fractions by means of HPLC/UV or GC/FID.
The transdermal in-vitro skin flow is indicated in ng/cm^2/h: […]

[2] = solubility (crystal-free loadability) of the active ingredient in polyacrylate matrix-TDS according to Example 1; format: physicochemical; settings: for content up to which active ingredient is present in dissolved form in matrix-TDS: matrix-TDS according to Example 1
Protocol: Hydroxytrienedione is weighed in a beaker and with 25 g of a 30% solution of Kollidon^(R) VA 64 in 2-propanol. 10 ml of 2-propanol is added. The mixture that is obtained is stirred for 5 minutes. The mixture is fed into the adhesive solution (Gelva 7881) that is introduced. The following table indicates the adhesive dry mass that is contained in the introduced volume of the adhesive solution. Then, it is stirred for another 0.5 hour. After polarization-microscopic checking to ensure the absence of crystals, the mixture that is obtained is coated by means of a 300 μm doctor blade on a liner that consists of fluoropolymer-coated polyester (Scotchpak^(R) 1022 Release Liner). It is dried for 20 minutes at 70° C. and then laminated with a backing that consists of a co-laminate of PVC-PVDS with polyester (Saran-Hytrel^(R) backing). Round patches with a surface area of 10 cm^2 are punched from the three-layer laminate that is obtained and welded into a sealed bag that is made of aluminum compound foil.
A matrix-TDS, in which the active ingredient is present in dissolved form, can be produced according to Example 1 with gestodene only up to about 1% (m/m). Moreover, it results in recrystallization phenomena of the gestodene. The skin flow cannot increase decisively.

[3] = formulations for transdermal systems; cited from earlier work

C[C@H](O)C(=O)[C@]12C=C[C@@]3(CC1)C1CCC4=CC(=O)CCC4=C1CC[C@]23C (stereo partly drawn) [hydroxytrienedione, (21S)-21-hydroxy-21-methyl-14,17-ethano-19-norpregna-4,9,15-triene-3,20-dione]
skin flows for 1%-matrix-TDS, hydroxytrienedione versus gestodene ([1]; 1%-matrix-TDS): comparable
content up to which active ingredient is present in dissolved form in matrix-TDS [2]: about 20 % (m/m)
solubility in transdermal systems ([2]; matrix-transdermal systems based on polyacrylate adhesive): about 20 % by weight

C#C[C@]1(O)C=C[C@H]2[C@@H]3CCC4=CC(=O)CC[C@@H]4[C@H]3CC[C@@]21CC [gestodene]
transdermal in-vitro skin flow ([1]; 1 h, diffusion cell 1): 0 ng/cm^2/h
transdermal in-vitro skin flow ([1]; 1 h, diffusion cell 2): 0 ng/cm^2/h
transdermal in-vitro skin flow ([1]; 1 h, diffusion cell 3): 0 ng/cm^2/h
transdermal in-vitro skin flow ([1]; 1 h, diffusion cell 4): 0 ng/cm^2/h
transdermal in-vitro skin flow, MW (mean value) ([1]; 1 h): 0 ng/cm^2/h
transdermal in-vitro skin flow ([1]; 3 h, diffusion cell 1): 1 ng/cm^2/h
transdermal in-vitro skin flow ([1]; 3 h, diffusion cell 2): 4 ng/cm^2/h
transdermal in-vitro skin flow ([1]; 3 h, diffusion cell 3): 2 ng/cm^2/h
transdermal in-vitro skin flow ([1]; 3 h, diffusion cell 4): 5 ng/cm^2/h
transdermal in-vitro skin flow, MW (mean value) ([1]; 3 h): 3 ng/cm^2/h
transdermal in-vitro skin flow ([1]; 5 h, diffusion cell 1): 5 ng/cm^2/h
transdermal in-vitro skin flow ([1]; 5 h, diffusion cell 2): 31 ng/cm^2/h
transdermal in-vitro skin flow ([1]; 5 h, diffusion cell 3): 14 ng/cm^2/h
transdermal in-vitro skin flow ([1]; 5 h, diffusion cell 4): 18 ng/cm^2/h
transdermal in-vitro skin flow, MW (mean value) ([1]; 5 h): 17 ng/cm^2/h
transdermal in-vitro skin flow ([1]; 10 h, diffusion cell 1): 39 ng/cm^2/h
transdermal in-vitro skin flow ([1]; 10 h, diffusion cell 2): 72 ng/cm^2/h
transdermal in-vitro skin flow ([1]; 10 h, diffusion cell 3): 80 ng/cm^2/h
transdermal in-vitro skin flow ([1]; 10 h, diffusion cell 4): 58 ng/cm^2/h
transdermal in-vitro skin flow, MW (mean value) ([1]; 10 h): 62 ng/cm^2/h
transdermal in-vitro skin flow ([1]; 18 h, diffusion cell 1): 77 ng/cm^2/h
transdermal in-vitro skin flow ([1]; 18 h, diffusion cell 2): 46 ng/cm^2/h
transdermal in-vitro skin flow ([1]; 18 h, diffusion cell 3): 110 ng/cm^2/h
transdermal in-vitro skin flow ([1]; 18 h, diffusion cell 4): 36 ng/cm^2/h
transdermal in-vitro skin flow, MW (mean value) ([1]; 18 h): 67 ng/cm^2/h
transdermal in-vitro skin flow ([1]; 26 h, diffusion cell 1): 120 ng/cm^2/h
transdermal in-vitro skin flow ([1]; 26 h, diffusion cell 2): 45 ng/cm^2/h
transdermal in-vitro skin flow ([1]; 26 h, diffusion cell 3): 111 ng/cm^2/h
transdermal in-vitro skin flow ([1]; 26 h, diffusion cell 4): 33 ng/cm^2/h
transdermal in-vitro skin flow, MW (mean value) ([1]; 26 h): 77 ng/cm^2/h
transdermal in-vitro skin flow ([1]; 34 h, diffusion cell 1): 50 ng/cm^2/h
transdermal in-vitro skin flow ([1]; 34 h, diffusion cell 2): 39 ng/cm^2/h
transdermal in-vitro skin flow ([1]; 34 h, diffusion cell 3): 83 ng/cm^2/h
transdermal in-vitro skin flow ([1]; 34 h, diffusion cell 4): 31 ng/cm^2/h
transdermal in-vitro skin flow, MW (mean value) ([1]; 34 h): 51 ng/cm^2/h
transdermal in-vitro skin flow ([1]; 42 h, diffusion cell 1): 47 ng/cm^2/h
transdermal in-vitro skin flow ([1]; 42 h, diffusion cell 2): 33 ng/cm^2/h
transdermal in-vitro skin flow ([1]; 42 h, diffusion cell 3): 74 ng/cm^2/h
transdermal in-vitro skin flow ([1]; 42 h, diffusion cell 4): 25 ng/cm^2/h
transdermal in-vitro skin flow, MW (mean value) ([1]; 42 h): 45 ng/cm^2/h
transdermal in-vitro skin flow ([1]; 50 h, diffusion cell 1): 37 ng/cm^2/h
transdermal in-vitro skin flow ([1]; 50 h, diffusion cell 2): 27 ng/cm^2/h
transdermal in-vitro skin flow ([1]; 50 h, diffusion cell 3): 44 ng/cm^2/h
transdermal in-vitro skin flow ([1]; 50 h, diffusion cell 4): 22 ng/cm^2/h
transdermal in-vitro skin flow, MW (mean value) ([1]; 50 h): 32 ng/cm^2/h
content up to which active ingredient is present in dissolved form in matrix-TDS [2]: about 1 % (m/m)
solubility in the matrices used [3]: about 1%
